Reference: ChEMBL document CHEMBL3769369, “Ligand-based modeling of diverse aryalkylamines yields new potent P-glycoprotein inhibitors” (Eur J Med Chem, 2016)

Key:
[1] = Cytotoxicity against human fibroblast cells assessed as viable cells at 50 uM by trypan blue staining based assay; type: cell-based; details: read-out: Activity
[2] = Inhibition of P-gp in human MCF7/D70 cells assessed as decrease in doxorubicin IC50 at 50 uM after 72 hrs by MTT assay (Rvb doxorubicin alone IC50 = 0.906 +/- 0.02 uM); type: cell-based; details: MCF7/D70, 72 h
[3] = Cytotoxicity against human fibroblast cells assessed as viable cells at 10 uM by trypan blue staining based assay; type: cell-based; details: read-out: Activity
MCF7 [4] = experiment: Cytotoxicity against human MCF7 cells assessed as viable cells at 50 uM by trypan blue staining based assay; type: functional; details: read-out: Activity
MCF7 [5] = experiment: Cytotoxicity against human MCF7 cells assessed as viable cells at 10 uM by trypan blue staining based assay; type: functional; details: read-out: Activity
[6] = Inhibition of P-gp in human MCF7/D70 cells assessed as decrease in doxorubicin IC50 at 10 uM after 72 hrs by MTT assay (Rvb doxorubicin alone IC50 = 0.906 +/- 0.02 uM); type: cell-based; details: MCF7/D70, 72 h
[7] = Inhibition of P-gp in human MCF7/D70 cells assessed as decrease in doxorubicin IC50 at 1 uM after 72 hrs by MTT assay (Rvb doxorubicin alone IC50 = 0.906 +/- 0.02 uM); type: cell-based; details: MCF7/D70, 72 h

## COc1cc(C2CNCc3cc(OC)c(O)cc32)ccc1O (centres undefined)
[1]
  viability at 50 µM: 90%
[2]
  IC50: 610 nM
[3]
  viability at 10 µM: 100%
MCF7 [4]
  viability at 50 µM: 73%
MCF7 [5]
  viability at 10 µM: 76%
[6]
  IC50: 840 nM

## CN/N=C(\C)C(CN1CCCCC1)C(C1=C(O)c2ccccc2OC1)c1ccccc1 (centres undefined)
[1]
  viability at 50 µM: 75%
[2]
  IC50: 1080 nM
[3]
  viability at 10 µM: 100%
MCF7 [4]
  viability at 50 µM: 97%
MCF7 [5]
  viability at 10 µM: 100%

## Cc1ccc(N2CCN(CCCOC(=O)Nc3cccc4ccccc34)CC2)cc1
[1]
  viability at 50 µM: 89%
[2]
  IC50: 830 nM
[3]
  viability at 10 µM: 89%
MCF7 [4]
  viability at 50 µM: 70%
MCF7 [5]
  viability at 10 µM: 93%

## CCN(CC)CCC(=O)NC1c2ccc(Cl)cc2Oc2c(C)cccc21 (centres undefined)
[1]
  viability at 50 µM: 13%
[3]
  viability at 10 µM: 100%
MCF7 [4]
  viability at 50 µM: 9%
MCF7 [5]
  viability at 10 µM: 100%

## CCC1=C(CC2NCCc3ccccc32)CC2c3cc(OC)c(OC)cc3CCN2C1 (centres undefined)
[1]
  viability at 50 µM: 16%
[3]
  viability at 10 µM: 46%
MCF7 [4]
  viability at 50 µM: 5%
MCF7 [5]
  viability at 10 µM: 31%

## O=C1NCN(c2ccccc2)C12CCN(CCCS(=O)(=O)c1ccccc1)CC2
[1]
  viability at 50 µM: 100%
[2]
  IC50: 240 nM
[3]
  viability at 10 µM: 100%
MCF7 [4]
  viability at 50 µM: 80%
MCF7 [5]
  viability at 10 µM: 77%
[6]
  IC50: 1140 nM

## CC1CN(CC2COc3ccccc3O2)C(C)CN1CC1COc2ccccc2O1 (centres undefined)
[1]
  viability at 50 µM: 77%
[2]
  IC50: 580 nM
[3]
  viability at 10 µM: 100%
MCF7 [4]
  viability at 50 µM: 53%
MCF7 [5]
  viability at 10 µM: 80%
[6]
  IC50: 1450 nM

## Cc1nn(C(=O)Cc2ccccc2)c2c1C(c1ccc(O)cc1)SC(=N)N2 (centres undefined)
[1]
  viability at 50 µM: 63%
[2]
  IC50: 2070 nM
[3]
  viability at 10 µM: 100%
MCF7 [4]
  viability at 50 µM: 55%
MCF7 [5]
  viability at 10 µM: 96%

## N=c1[nH]c(=O)n(CCCCOc2ccccc2)cc1-c1ccc(Cl)c(Cl)c1
[1]
  viability at 50 µM: 56%
[2]
  IC50: 240 nM
[3]
  viability at 10 µM: 100%
MCF7 [4]
  viability at 50 µM: 58%
MCF7 [5]
  viability at 10 µM: 77%
[6]
  IC50: 570 nM

## CC1(CN2CCCC2)CCC(NC(=O)C(c2ccccc2)c2ccccc2)C(C)(C)O1 (centres undefined)
[1]
  viability at 50 µM: 54%
[2]
  IC50: 140 nM
[3]
  viability at 10 µM: 88%
MCF7 [4]
  viability at 50 µM: 51%
MCF7 [5]
  viability at 10 µM: 100%
[6]
  IC50: 1730 nM

## NC(c1ccc2c(c1)OCO2)C(O)c1ccc2c(c1)OCO2 (centres undefined)
[1]
  viability at 50 µM: 82%
[2]
  IC50: 2520 nM
[3]
  viability at 10 µM: 100%
MCF7 [4]
  viability at 50 µM: 72%
MCF7 [5]
  viability at 10 µM: 74%

## COc1cc2c(cc1OC)C1C(CO)c3ccc4c(c3CN1CC2)OCO4 (centres undefined)
[1]
  viability at 50 µM: 75%
[2]
  IC50: 570 nM
[3]
  viability at 10 µM: 100%
MCF7 [4]
  viability at 50 µM: 72%
MCF7 [5]
  viability at 10 µM: 90%

## COc1ccc(Nc2ccnc3cc(Cl)ccc23)cc1CNCC(C)C
[1]
  viability at 50 µM: 17%
[3]
  viability at 10 µM: 12%
MCF7 [4]
  viability at 50 µM: 6%
MCF7 [5]
  viability at 10 µM: 26%

## CCCNCCC(O)c1cc(C(F)(F)F)nc2c(C(F)(F)F)cccc12 (centres undefined)
[1]
  viability at 50 µM: 19%
[3]
  viability at 10 µM: 67%
MCF7 [4]
  viability at 50 µM: 6%
MCF7 [5]
  viability at 10 µM: 9%

## O=C1CN(CCN2CC(=O)N(Cc3ccccc3)C(=O)C2)CC(=O)N1Cc1ccccc1
[1]
  viability at 50 µM: 82%
[2]
  IC50: 240 nM
[3]
  viability at 10 µM: 100%
MCF7 [4]
  viability at 50 µM: 69%
MCF7 [5]
  viability at 10 µM: 76%
[6]
  IC50: 850 nM

## COc1cc2c(cc1OC)C(c1ccc(O)c(O)c1)CNC2 (centres undefined)
[1]
  viability at 50 µM: 97%
[2]
  IC50: 800 nM
[3]
  viability at 10 µM: 100%
MCF7 [4]
  viability at 50 µM: 97%
MCF7 [5]
  viability at 10 µM: 93%

## COc1cc(C2CNCc3cc(O)c(OC)cc32)ccc1O (centres undefined)
[1]
  viability at 50 µM: 100%
[2]
  IC50: 830 nM
[3]
  viability at 10 µM: 100%
MCF7 [4]
  viability at 50 µM: 80%
MCF7 [5]
  viability at 10 µM: 75%

## C[N+]1(CCOC(=O)C(c2ccccc2)C2C=CCC2)CCCC12CCCCC2 (centres undefined)
[1]
  viability at 50 µM: 81%
[2]
  IC50: 1550 nM
[3]
  viability at 10 µM: 100%
MCF7 [4]
  viability at 50 µM: 75%
MCF7 [5]
  viability at 10 µM: 89%

## O=C1OCCN1N1C(=O)CC2(CCN(Cc3ccccc3)CC2)C1=O
[1]
  viability at 50 µM: 100%
[2]
  IC50: 510 nM
[3]
  viability at 10 µM: 100%
MCF7 [4]
  viability at 50 µM: 89%
MCF7 [5]
  viability at 10 µM: 95%

## CC1CN(CCOC(=O)C(c2ccccc2)C2C=CCCC2)C(C)(C)C1 (centres undefined)
[1]
  viability at 50 µM: 36%
[3]
  viability at 10 µM: 84%
MCF7 [4]
  viability at 50 µM: 61%
MCF7 [5]
  viability at 10 µM: 93%

## COc1ccc(CCN(C)CCCC(C#N)(c2ccc(OC)c(OC)c2)C(C)C)cc1OC (centres undefined) [VERAPAMIL]
[6]
  IC50: 200 nM

## CC1CN(CCOC(=O)C(c2ccccc2)C2C=CCCC2)CC1C (centres undefined)
[1]
  viability at 50 µM: 100%
[2]
  IC50: 2120 nM
[3]
  viability at 10 µM: 100%
MCF7 [4]
  viability at 50 µM: 74%
MCF7 [5]
  viability at 10 µM: 89%

## CC1(C)CCN(CCOC(=O)C(c2ccccc2)C2C=CCCC2)C1 (centres undefined)
[1]
  viability at 50 µM: 59%
[2]
  IC50: 550 nM
[3]
  viability at 10 µM: 100%
MCF7 [4]
  viability at 50 µM: 53%
MCF7 [5]
  viability at 10 µM: 98%

## ClCCNCc1cccc(Nc2ccnc3cc(Cl)ccc23)c1
[1]
  viability at 50 µM: 48%
[3]
  viability at 10 µM: 96%
MCF7 [4]
  viability at 50 µM: 15%
MCF7 [5]
  viability at 10 µM: 86%

## CCC(C)N1CN(c2ccccc2)C2(CCN(CC3COc4ccccc4O3)CC2)C1=O (centres undefined)
[1]
  viability at 50 µM: 70%
[3]
  viability at 10 µM: 100%
MCF7 [4]
  viability at 50 µM: 11%
MCF7 [5]
  viability at 10 µM: 93%

## CN(C)C1C(c2ccccc2)S(=O)(=O)C1C1CS(=O)(=O)C1c1ccccc1 (centres undefined)
[1]
  viability at 50 µM: 19%
[3]
  viability at 10 µM: 39%
MCF7 [4]
  viability at 50 µM: 5%
MCF7 [5]
  viability at 10 µM: 68%

## Cc1ccc2c(c1)C(NC(Cc1ccccc1)C(=O)O)C(Cl)C(=O)O2 (centres undefined)
[1]
  viability at 50 µM: 100%
[2]
  IC50: 850 nM
[3]
  viability at 10 µM: 94%
MCF7 [4]
  viability at 50 µM: 74%
MCF7 [5]
  viability at 10 µM: 75%

## Fc1ccc(N/C2=N/CC/N=C(/Nc3ccc(F)cc3)SS2)cc1
[1]
  viability at 50 µM: 57%
[2]
  IC50: 190 nM
[7]
  IC50: 320 nM
[3]
  viability at 10 µM: 100%
MCF7 [4]
  viability at 50 µM: 58%
MCF7 [5]
  viability at 10 µM: 92%
[6]
  IC50: 320 nM

## CN1CCc2ccccc2C1Cc1cc(OCc2ccccc2)ccc1N (centres undefined)
[1]
  viability at 50 µM: 16%
[3]
  viability at 10 µM: 82%
MCF7 [4]
  viability at 50 µM: 6%
MCF7 [5]
  viability at 10 µM: 74%

## CN1CN(c2ccccc2)C2(CCN(CCc3cc4ccccc4o3)CC2)C1=O
[1]
  viability at 50 µM: 21%
[3]
  viability at 10 µM: 92%
MCF7 [4]
  viability at 50 µM: 14%
MCF7 [5]
  viability at 10 µM: 31%

## CCCC(=O)N(C)C1=Nc2ccc(Cl)cc2C(c2ccccc2)=[N+]([O-])C1
[1]
  viability at 50 µM: 68%
[2]
  IC50: 490 nM
[7]
  IC50: 390 nM
[3]
  viability at 10 µM: 100%
MCF7 [4]
  viability at 50 µM: 70%
MCF7 [5]
  viability at 10 µM: 95%
[6]
  IC50: 380 nM

## COc1ccc(C2NC(C(=O)O)Cc3c2[nH]c2ccccc32)cc1OC (centres undefined)
[1]
  viability at 50 µM: 100%
[2]
  IC50: 1180 nM
[3]
  viability at 10 µM: 92%
MCF7 [4]
  viability at 50 µM: 92%
MCF7 [5]
  viability at 10 µM: 89%

## COc1cc(-n2c(CCc3nc(-c4ccc(Cl)cc4)no3)n[nH]c2=S)c(OC)cc1Cl
[1]
  viability at 50 µM: 61%
[2]
  IC50: 300 nM
[7]
  IC50: 940 nM
[3]
  viability at 10 µM: 74%
MCF7 [4]
  viability at 50 µM: 71%
MCF7 [5]
  viability at 10 µM: 86%
[6]
  IC50: 310 nM

## C=CCN1CC[C@]23c4c5ccc(O)c4O[C@H]2C(=O)CC[C@@]3(O)[C@H]1C5 [NALOXONE]
[1]
  viability at 50 µM: 100%
[2]
  IC50: 360 nM
[3]
  viability at 10 µM: 100%
MCF7 [4]
  viability at 50 µM: 67%
MCF7 [5]
  viability at 10 µM: 74%
[6]
  IC50: 850 nM

## CCN(Cc1ccccc1)C(=O)C1CCN(Cc2c[nH]c3ccccc23)CC1
[1]
  viability at 50 µM: 21%
[2]
  IC50: 620 nM
[3]
  viability at 10 µM: 56%
MCF7 [4]
  viability at 50 µM: 13%
MCF7 [5]
  viability at 10 µM: 48%
